pEC50: −log10 of the molar value.
Experiments:
[1] = Cytotoxicity against human MT4 cells after 5 days by Cell Titre Glo assay; format: cell-based
[2] = test system: Hepatitis C virus; assay: Antiviral activity against Hepatitis C virus H77 genotype 1a infected in human HuH7 cells assessed as intrinsic antiviral potency after 72 hrs by luciferase reporter gene assay; format: functional, organism-based, Hepacivirus hominis; details: genotype 1a H77, Huh-7, 72 h
[3] = test system: Hepatitis C virus; assay: Antiviral activity against HCV genotype 1b harboring NS5B polymerase M423T mutant infected in human HuH7-Lunet cells by luciferase reporter gene assay; format: functional, organism-based, Hepacivirus hominis; details: Huh-7
[4] = Fraction unbound in cell culture medium at 2 uM at pH 7.4 by equilibrium dialysis method; format: ADME
[5] = test system: Hepatitis C virus; assay: Selectivity ratio of EC50 for HCV genotype 1b harboring NS5B polymerase M423T mutant to EC50 for HCV genotype 1b harboring wild type NS5B polymerase; format: functional, Hepacivirus hominis
[6] = Cytotoxicity against human HuH7 cells after 3 days by Cell Titre Glo assay; format: cell-based, Huh-7
[7] = Mean residence time in Sprague-Dawley rat at 1 mg/kg, iv; format: ADME, organism-based; set-up: dose 1 mg/kg, route intravenous; details: in vivo
[8] = test system: Hepatitis C virus; assay: Antiviral activity against Hepatitis C virus H77 genotype 1a infected in human HuH7 cells assessed as observed antiviral potency after 72 hrs by luciferase reporter gene assay; format: functional, organism-based, Hepacivirus hominis; details: genotype 1a H77, Huh-7, 72 h
[9] = Lipophilicity, log D of the compound by chromatography; format: physicochemical
[10] = test system: Hepatitis C virus; assay: Antiviral activity against Hepatitis C virus H77 genotype 1a infected in human HuH7 cells assessed as plasma adjusted antiviral potency after 72 hrs by luciferase reporter gene assay; format: functional, organism-based, Hepacivirus hominis; details: genotype 1a H77, Huh-7, Plasma
[11] = Intrinsic cytotoxicity against human MT4 cells after 5 days by Cell Titre Glo assay; format: cell-based
[12] = Mean residence time in Sprague-Dawley rat at 0.4 mg/kg, iv; format: ADME, organism-based; set-up: dose 0.4 mg/kg, route intravenous; details: in vivo
[13] = Mean residence time in Sprague-Dawley rat at 0.5 mg/kg, iv; format: ADME, organism-based; set-up: dose 0.5 mg/kg, route intravenous; details: in vivo
[14] = test system: Hepatitis C virus; assay: Antiviral activity against HCV genotype 1b harboring wild type NS5B polymerase infected in human HuH7-Lunet cells by luciferase reporter gene assay; format: functional, organism-based, Hepacivirus hominis; details: Huh-7
[15] = test system: Hepatitis C virus; assay: Antiviral activity against Hepatitis C virus Con1 genotype 1b infected in human HuH7 cells after 72 hrs by luciferase reporter gene assay; format: functional, organism-based, Hepacivirus hominis; details: isolate Con1, Huh-7, 72 h
[16] = test system: Hepatitis C virus; assay: Antiviral activity against HCV genotype 1 infected in human patient assessed as log10 reduction in viral RNA in plasma at 700 mg/kg, bid after 8 days; format: functional, Hepacivirus hominis
[17] = test system: Hepatitis C virus; assay: Antiviral activity against HCV genotype 1b infected in human patient assessed as log10 reduction in viral RNA in plasma at 750 mg/kg, bid after 3 days; format: functional, Hepacivirus hominis
[18] = Half life in human patient infected with chronic HCV; format: ADME, organism-based; details: in vivo
[19] = test system: Hepatitis C virus; assay: Antiviral activity against HCV infected in human patient assessed as log10 reduction in viral RNA in plasma at 500 mg/kg, qd after 3 days; format: functional, Hepacivirus hominis

SMILES | CC50 at 120 h [1] | pEC50 [2] | pEC50 [3] | fraction unbound at 2 µM [4] | Ratio EC50 [5] | pEC50 [8] | pEC50 [10] | CC50 at 120 h [11] | further results
CC(C)N(c1cc(C#CC(C)(C)C)sc1C(=O)O)C(=O)[C@H]1CC[C@H](C)CC1 | > 20000 nM | 8.26 | 6.53 | 0.06 | 11 |  |  |  | CC50 at 72 h [6]: ≥ 20000 nM
CC(C)(C)C#Cc1cc(N(C(=O)[C@H]2CC[C@H](C)CC2)[C@H]2CC[C@H](Oc3cccnc3)CC2)c(C(=O)O)s1 | > 20000 nM | 8.44 |  | 0.03 |  | 6.89 |  |  | MRT [7]: 3.4 h
CC(C)(C)C#Cc1cc(N(C(=O)[C@H]2CC[C@H](C)CC2)[C@H]2CC[C@H](Oc3ccccn3)CC2)c(C(=O)O)s1 | > 20000 nM | 8.60 |  |  |  | 6.53 | 5.98 | 100 nM | chromatographic logD [9]: 3; MRT [7]: 5 h
CC(C)(C)C#Cc1cc(N(C(=O)[C@H]2CC[C@H](C)CC2)[C@H]2CC[C@H](Oc3ccc4nccn4n3)CC2)c(C(=O)O)s1 | > 20000 nM | 8.89 |  |  |  | 6.72 | 5.95 | 133 nM | chromatographic logD [9]: 2.4; MRT [12]: 6.2 h
CC(C)(C)C#Cc1cc(N(C(=O)[C@H]2CC[C@H](C)CC2)[C@H]2CC[C@H](Oc3nccs3)CC2)c(C(=O)O)s1 | > 20000 nM | 8.82 |  |  |  | 7.08 |  |  | MRT [7]: 2.8 h
CC(C)(C)C#Cc1cc(N(C(=O)[C@H]2CC[C@H](C)CC2)[C@H]2CC[C@](O)(CO[C@H]3CCOC3)CC2)c(C(=O)O)s1 | > 20000 nM | 8.66 | 7.33 |  | 4 |  | 6.68 | 8980 nM | MRT [13]: 3.8 h; chromatographic logD [9]: 2.4; pEC50 [14]: 7.92
CC1=CC[C@H](C(=O)N(c2cc(C#CC(C)(C)C)sc2C(=O)O)C(C)C)CC1 | > 20000 nM | 8.66 | 7.40 | 0.07 | 5 | 7.51 |  |  | pEC50 [14]: 8.10
CC(C)N(c1cc(-c2ccccc2)sc1C(=O)O)C(=O)[C@H]1CC[C@H](C)CC1 | > 20000 nM | 6.77 |  | 0.08 |  | 5.68 |  |  | pEC50 [15]: 6.23; CC50 at 72 h [6]: ≥ 20000 nM
CCc1cc(CC[C@]2(C3CCCC3)CC(O)=C(Cc3nc4nc(C)cc(C)n4n3)C(=O)O2)cc(CC)n1 [FILIBUVIR] |  |  |  |  |  |  |  |  | FC [16]: 2.3
CC(C)(C)C#Cc1cc(N(C(=O)[C@H]2CC[C@H](C)CC2)[C@H]2CC[C@H](O)CC2)c(C(=O)O)s1 [LOMIBUVIR] | > 20000 nM | 8.55 |  | 0.19 |  | 7.89 |  |  | pEC50 [15]: 8.22; FC [17]: 3.7; CC50 at 72 h [6]: ≥ 20000 nM
CC1=CC[C@H](C(=O)N(c2cc(C#CC(C)(C)C)sc2C(=O)O)[C@H]2CC[C@](O)(CO[C@H]3CCOC3)CC2)CC1 [RADALBUVIR] | > 20000 nM | 8.54 | 7.85 |  | 2 | 7.96 | 6.89 | 12100 nM | MRT [13]: 2.7 h; pEC50 [14]: 8.22; half-life [18]: 6 h; FC [19]: 3.6

— ChEMBL document CHEMBL3120092, “Discovery of GS-9669, a thumb site II non-nucleoside inhibitor of NS5B for the treatment of genotype 1 chronic hepatitis C infection” (J Med Chem, 2014)
